Where a name gives a salt, the structure may show the parent alone. Read-outs that look alike come from different tables or passages of the source.
Tested on: HIV-1 NL4-3 strain
Assay: Evaluation of antiviral activity: acute infection system of MT-4 cell with HIV-1 NL4-3 strain
Format: cell-based
[1] = Human immunodeficiency virus 1, NL43, MT4, 120 h, antiviral activity, MT-4 cells infected with HIV-1 NL4-3 (MOI 0.05), 5 days culture, Cell Titer-Glo luminescence, read-out: EC50
[2] = Human immunodeficiency virus 1, NL43, MT4, 120 h, antiviral activity, MT-4 cells infected with HIV-1 NL4-3 (MOI 0.05), 5 days culture, Cell Titer-Glo luminescence
[3] = Human immunodeficiency virus 1, NL43, MT4, 120 h, read-out: antiviral activity (EC50)
[4] = MT-4 cells infected with HIV-1 NL4-3 strain (MOI 0.05), cultured 5 days, Cell Titer-Glo, read-out: antiviral activity (EC50)

Which EC50 [1] does the source give for `CC(C)N1CC2(CC(O)C2)n2cc(C(=O)NCc3ccc(F)cc3F)c(=O)c(O)c2C1=O` (single isomer, unassigned) [Example S3, N-(2,4-difluorobenzyl)- trans-3,9′-dihydroxy-2′-isopropyl-1′,8′-dioxo-1′,2′,3′,8′-tetrahydrospiro[cyclobutane-1,4′-pyrido[1,2-a]pyrazine]-7′-carboxamide hydrobromide] here?
The EC50 was 11 nM.

How did the EC50 [1] turn out when `CC(C)N1CC2(CC(O)C2)n2cc(C(=O)NCc3ccc(F)cc3F)c(=O)c(O)c2C1=O` (single isomer, unassigned) [Example S4, N-(2,4-difluorobenzyl)-cis-3,9′-dihydroxy-2′-isopropyl-1′,8′-dioxo-1′,2′,3′,8′-tetrahydrospiro[cyclobutane-1,4′-pyrido[1,2-a]pyrazine]-7′-carboxamide] was run?
Its EC50 is 4.9 nM.

With `CO[C@H]1C[C@]2(CN(C)C(=O)c3c(O)c(=O)c(C(=O)NCc4cccc(Cl)c4F)cn32)C1` [Example 1, N-(3-chloro-2-fluorobenzyl)-9′-hydroxy-cis-3-methoxy-2′-methyl-1′,8′-dioxo-1′,2′,3′,8′-tetrahydrospiro[cyclobutane-1,4′-pyrido[1,2-a]pyrazine]-7′-carboxamide hydrochloride] as the compound, how does the EC50 (read-out: EC50) read?
Its EC50 is 3.1 nM.

`CO[C@H]1C[C@@]2(CN(C)C(=O)c3c(O)c(=O)c(C(=O)NCc4cccc(Cl)c4F)cn32)C1` [Example 2, N-(3-chloro-2-fluorobenzyl)-9′-hydroxy-trans-3-methoxy-2′-methyl-1′,8′-dioxo-1′,2′,3′,8′-tetrahydrospiro[cyclobutane-1,4′-pyrido[1,2-a]pyrazine]-7′-carboxamide hydrochloride] was tested. Which EC50 [2] did it give?
Its EC50 is 4.2 nM.

For `COC[C@H]1C[C@]2(CN(C)C(=O)c3c(O)c(=O)c(C(=O)NCc4cccc(Cl)c4F)cn32)C1` [Example 3, N-(3-chloro-2-fluorobenzyl)-9′-hydroxy-cis-3-(methoxymethyl)-2′-methyl-1′,8′-dioxo-1′,2′,3′,8′-tetrahydrospiro[cyclobutane-1,4′-pyrido[1,2-a]pyrazine]-7′-carboxamide hydrochloride], which EC50 [2] is on record?
Its EC50 is 3.2 nM.

Which EC50 [2] does the source give for `CC(C)N1C[C@@]2(C[C@@H]2CO)n2cc(C(=O)NCc3ccc(F)cc3F)c(=O)c(O)c2C1=O` [Example 9, (1S,2S)—N-(2,4-difluorobenzyl)-9′-hydroxy-2-(hydroxymethyl)-2′-isopropyl-1′,8′-dioxo-1′,2′,3′,8′-tetrahydrospiro[cyclopropane-1,4′-pyrido[1,2-a]pyrazine]-7′-carboxamide hydrochloride] here?
The EC50 was 5.6 nM.

`COC[C@H]1C[C@@]12CN(C(C)C)C(=O)c1c(O)c(=O)c(C(=O)NCc3ccc(F)cc3F)cn12` [Example 10, (1S,2S)—N-(2,4-difluorobenzyl)-9′-hydroxy-2′-isopropyl-2-(methoxymethyl)-1′,8′-dioxo-1′,2′,3′,8′-tetrahydrospiro[cyclopropane-1,4′-pyrido[1,2-a]pyrazine]-7′-carboxamide hydrochloride] was tested. Which EC50 [2] did it give?
The EC50 was 3.6 nM.

Which EC50 [2] does the source give for `CC(C)N1C[C@]2(C[C@H]2CO)n2cc(C(=O)NCc3ccc(F)cc3F)c(=O)c(O)c2C1=O` [Example 11, (1R,2R)—N-(2,4-difluorobenzyl)-9′-hydroxy-2-(hydroxymethyl)-2′-isopropyl-1′,8′-dioxo-1′,2′,3′,8′-tetrahydrospiro[cyclopropane-1,4′-pyrido[1,2-a]pyrazine]-7′-carboxamide hydrochloride] here?
The EC50 was 5.8 nM.

For `COC[C@@H]1C[C@]12CN(C(C)C)C(=O)c1c(O)c(=O)c(C(=O)NCc3ccc(F)cc3F)cn12` [Example 12, (1R,2R)—N-(2,4-difluorobenzyl)-9′-hydroxy-2′-isopropyl-2-(methoxymethyl)-1′,8′-dioxo-1′,2′,3′,8′-tetrahydrospiro[cyclopropane-1,4′-pyrido[1,2-a]pyrazine]-7′-carboxamide hydrochloride], which EC50 [2] is on record?
The EC50 was 5 nM.

How did the EC50 [2] turn out when `CC(C)N1C[C@]2(C[C@@H]2CO)n2cc(C(=O)NCc3ccc(F)cc3F)c(=O)c(O)c2C1=O` [Example 13, (1R,2S)—N-(2,4-difluorobenzyl)-9′-hydroxy-2-(hydroxymethyl)-2′-isopropyl-1′,8′-dioxo-1′,2′,3′,8′-tetrahydrospiro[cyclopropane-1,4′-pyrido[1,2-a]pyrazine]-7′-carboxamide hydrochloride] was run?
The EC50 was 5.4 nM.

For `COC[C@H]1C[C@]12CN(C(C)C)C(=O)c1c(O)c(=O)c(C(=O)NCc3ccc(F)cc3F)cn12` [Example 14, (1R,2S)—N-(2,4-difluorobenzyl)-9′-hydroxy-2′-isopropyl-2-(methoxymethyl)-1′,8′-dioxo-1′,2′,3′,8′-tetrahydrospiro[cyclopropane-1,4′-pyrido[1,2-a]pyrazine]-7′-carboxamide], which EC50 [1] is on record?
Its EC50 is 9.1 nM.

`CC(C)N1C[C@@]2(C[C@H]2CO)n2cc(C(=O)NCc3ccc(F)cc3F)c(=O)c(O)c2C1=O` [Example 15, (1S,2R)—N-(2,4-difluorobenzyl)-9′-hydroxy-2-(hydroxymethyl)-2′-isopropyl-1′,8′-dioxo-1′,2′,3′,8′-tetrahydrospiro[cyclopropane-1,4′-pyrido[1,2-a]pyrazine]-7′-carboxamide hydrochloride] was tested. Which EC50 [2] did it give?
The EC50 was 7.2 nM.

With `COC[C@@H]1C[C@@]12CN(C(C)C)C(=O)c1c(O)c(=O)c(C(=O)NCc3ccc(F)cc3F)cn12` [Example 16, (1S,2R)—N-(2,4-difluorobenzyl)-9′-hydroxy-2′-isopropyl-2-(methoxymethyl)-1′,8′-dioxo-1′,2′,3′,8′-tetrahydrospiro[cyclopropane-1,4′-pyrido[1,2-a]pyrazine]-7′-carboxamide] as the compound, how does the EC50 [1] read?
The EC50 was 6.1 nM.

With `CCN1C(=O)c2c(O)c(=O)c(C(=O)NCc3cccc(Cl)c3F)cn2C[C@@]12C[C@@H]2COC` [Example 17, (1S,2S)—N-(3-chloro-2-fluorobenzyl)-2′-ethyl-9′-hydroxy-2-(methoxymethyl)-1′,8′-dioxo-1′,2′,4′,8′-tetrahydrospiro[cyclopropane-1,3′-pyrido[1,2-a]pyrazine]-7′-carboxamide] as the compound, how does the EC50 [1] read?
The EC50 was 3.4 nM.

How did the EC50 [1] turn out when `CCN1C(=O)c2c(O)c(=O)c(C(=O)NCc3cccc(Cl)c3F)cn2C[C@]12C[C@H]2COC` [Example 18, (1R,2R)—N-(3-chloro-2-fluorobenzyl)-2′-ethyl-9′-hydroxy-2-(methoxymethyl)-1′,8′-dioxo-1′,2′,4′,8′-tetrahydrospiro[cyclopropane-1,3′-pyrido[1,2-a]pyrazine]-7′-carboxamide] was run?
Its EC50 is 2.6 nM.

`CCN1C[C@@]2(C[C@@H]2C(=O)N(C)C)n2cc(C(=O)NCc3ccc(F)cc3F)c(=O)c(O)c2C1=O` [Example 19, (1S,2S)—N^7′-(2,4-difluorobenzyl)-2′-ethyl-9′-hydroxy-N^2,N^2-dimethyl-1′,8′-dioxo-1′,2′,3′,8′-tetrahydrospiro[cyclopropane-1,4′-pyrido[1,2-a]pyrazine]-2,7′-dicarboxamide hydrochloride] was tested. Which EC50 [1] did it give?
The EC50 was 4.2 nM.

For `CC(=O)N(C)C1CC2(C1)CN(C(C)C)C(=O)c1c(O)c(=O)c(C(=O)NCc3ccc(F)cc3F)cn12` (centres unmarked) [Example 20, N-(2,4-difluorobenzyl)-9′-hydroxy-2′-isopropyl-3-(N-methylacetamido)-1′,8′-dioxo-1′,2′,3′,8′-tetrahydrospiro[cyclobutane-1,4′-pyrido[1,2-a]pyrazine]-7′-carboxamide hydrochloride], which EC50 [2] is on record?
Its EC50 is 20 nM.

How did the EC50 [2] turn out when `CC(C)N1C[C@]2(C[C@H]2CS(C)(=O)=O)n2cc(C(=O)NCc3cccc(Cl)c3F)c(=O)c(O)c2C1=O` [Example 21, (1R,2R)—N-(3-chloro-2-fluorobenzyl)-9′-hydroxy-2′-isopropyl-2-(methylsulfonylmethyl)-1′,8′-dioxo-1′,2′,3′,8′-tetrahydrospiro[cyclopropane-1,4′-pyrido[1,2-a]pyrazine]-7′-carboxamide hydrochloride] was run?
Its EC50 is 48 nM.

Which EC50 [3] does the source give for `CN1C[C@]2(C[C@H](C(=O)O)C2)n2cc(C(=O)NCc3cccc(Cl)c3F)c(=O)c(O)c2C1=O` [Example 22, 7′-(3-chloro-2-fluorobenzylcarbamoyl)-9′-hydroxy-2′-methyl-1′,8′-dioxo-1′,2′,3′,8′-tetrahydrospiro[cyclobutane-1,4′-pyrido[1,2-a]pyrazine]-cis-3-carboxylic acid hydrochloride] here?
Its EC50 is 400 nM.

For `CO[C@H]1C[C@]2(CN(C)C(=O)c3c(O)c(=O)c(C(=O)NCc4cccc(Cl)c4F)cn32)C1` [Example 23, N-(3-chloro-2-fluorobenzyl)-9′-hydroxy-cis-3-methoxy-2′-methyl-1′,8′-dioxo-1′,2′,3′,8′-tetrahydrospiro[cyclobutane-1,4′-pyrido[, 2-a]pyrazine]-7′-carboxamide], which EC50 (Human immunodeficiency virus 1, NL43, MT4, 120 h, MT-4 cells infected with HIV-1 NL4-3 strain (MOI 0.05), cultured 5 days, Cell Titer-Glo, read-out: antiviral activity (EC50)) is on record?
Its EC50 is 1.6 nM.

How did the EC50 [4] turn out when `CO[C@H]1C[C@]2(CN(C)C(=O)c3c(O)c(=O)c(C(=O)NCc4cccc(Cl)c4F)cn32)C1` [Example 24, Monosodium 7′-(3-chloro-2-fluorobenzylcarbamoyl)-cis-3-methoxy-2′-methyl-1′,8′-dioxo-1′,2′,3′,8′-tetrahydrospiro[cyclobutane-1,4′-pyrido[1,2-a]pyrazin]-9′-olate] was run?
The EC50 was 0.9 nM.

With `CO[C@H]1C[C@]2(CN(C)C(=O)c3c(O)c(=O)c(C(=O)NCc4cccc(Cl)c4F)cn32)C1` [Example 25, Monopotassium 7′-(3-chloro-2-fluorobenzylcarbamoyl)-cis-3-methoxy-2′-methyl-1′,8′-dioxo-1′,2′,3′,8′-tetrahydrospiro[cyclobutane-1,4′-pyrido[1,2-a]pyrazin]-9′-olate] as the compound, how does the EC50 [3] read?
Its EC50 is 2.1 nM.

With `COC[C@H]1C[C@]2(CN(C)C(=O)c3c(O)c(=O)c(C(=O)NCc4cccc(Cl)c4F)cn32)C1` [Example 26, N-(3-chloro-2-fluorobenzyl)-9′-hydroxy-cis-3-(methoxymethyl)-2′-methyl-1′,8′-dioxo-1′,2′,3′,8′-tetrahydrospiro[cyclobutane-1,4′-pyrido[1,2-a]pyrazine]-7′-carboxamide] as the compound, how does the EC50 [4] read?
Its EC50 is 1.9 nM.

Reference: patent publication US10087178B2, “Substituted spiropyrido[1,2-a]pyrazine derivative and medicinal use thereof as HIV integrase inhibitor” (priority 2012, dated 2018)
